For the first test, the target named is Recombinant full length HIV-1 Reverse Transcriptase (HIVrt) (Human immunodeficiency virus type 1 group M subtype B (isolate HXB2) (HIV-1), UniProt P04585). Kind of test: Inhibition of HIV reverse transcriptase (HIVrt RNA-dependent DNA polymerization assay). The test is classed as biochemical. The following applies: 1 nM HIVrt, c5′UTR RNA template, 30° C., 40 min; phosphono diphosphates tested. The procedure:
Recombinant full length HIV-1 Reverse Transcriptase (HIVrt) was purchased from Abcam, catalog #ab63979. The last 385 nucleotide region of the HCV anti-genome complementary to the 5′ untranslated region (c5′UTR) was synthesized using T7 RNA polymerase Megascript kit from Ambion (Cat #AM1333). A DNA oligo served as an internal initiation primer and was purchased from IDT. Unless otherwise specified, reaction samples consisted of 20 nM c5′UTR RNA, 100 nM DNA primer, and 1 nM HIVrt, mixed together in a buffer containing 50 mM Tris pH 7.5, 100 mM KCl, 4 mM dithiothreitol (DTT), and 12.5 mM MgCl2. Reactions were initiated at 30° C. by adding 0.1 μM adenosine triphosphate (dATP), 0.1 μM cytosine triphosphate (dCTP), 1 μM guanosine triphosphate (dGTP), and 0.32 μM ^3H-thymidine triphosphate (^3H-TTP), in a final volume of 50 μL. After 40-mins incubation, the reaction was terminated by adding 60 μl of chilled 20% (w/v) trichloroacetic acid with 500 μM ATP to precipitate nucleic acids. After incubation at 4° C. for 1 h, the sample underwent filtration on a multiscreen BV 1.2-μm 96-well plate (Millipore). 40 μL Microscint-20 (Perkin Elmer) was added to the well and the counts in the sample were determined by a Trilux Microbeta microplate scintillation reader (Wallac).
All data were analyzed with GraphPad Prism. The compound concentration at which the enzyme-catalyzed rate was reduced by 50% (IC50) was calculated by fitting the data to the equation Y=% Min+(% Max−% Min)/(1+X/IC50), where Y corresponds to the percent relative enzyme activity, % Min is the residual relative activity at saturating compound concentration, % Max is the relative maximum enzyme activity, and X corresponds to the compound concentration. The Ki was calculated using the Cheng-Prusoff equation assuming competitive inhibition relative to natural dNTP incorporation: Ki=IC50/(1+[dNTP]/Km), where [dNTP] is the concentration of natural dNTP and Km is the apparent Km for dNTP. The standard HIVrt RNA-dependent DNA polymerization (RdDp) assay was used to determine the IC50 values.
The IC50 is the concentration that gives 50% inhibition. Consider `Nc1ncnn2c(COCCP(=O)(O)OP(=O)(O)OP(=O)(O)O)ccc12` [Compound 19], for which the IC50 is no less than 250 nM.
Take `Nc1ncnn2c(CCOCP(=O)(O)OP(=O)(O)OP(=O)(O)O)ccc12` [Compound 20]: the IC50 was less than 50 nM.
Same read-out and setting: under `C[C@H](Cc1ccc2c(N)ncnn12)OCP(=O)(O)OP(=O)(O)OP(=O)(O)O` [Compound 21] stands less than 50 nM; under `C[C@H](Cc1nnc2c(N)ncnn12)OCP(=O)(O)OP(=O)(O)OP(=O)(O)O` [Compound 22], no less than 250 nM; under `C[C@H](Cc1cnc2c(N)ncnn12)OCP(=O)(O)OP(=O)(O)OP(=O)(O)O` [Compound 23], less than 50 nM.
Still for that read-out and setting: under `C[C@H](Cc1ncc2c(N)ncnn12)OCP(=O)(O)OP(=O)(O)OP(=O)(O)O` [Compound 24] stands no less than 250 nM.
`C[C@H](Cc1cnn2c(N)ncnc12)OCP(=O)(O)OP(=O)(O)OP(=O)(O)O` [Compound 25]: the IC50 was 50 to 250 nM.
The same measure, in the same setting: under `C[C@@H](Cc1cnn2c(N)ncnc12)OCP(=O)(O)OP(=O)(O)OP(=O)(O)O` [Compound 26] stands less than 50 nM.
The same measure, in the same setting: the figure for `CC(Cc1ccc2c(N)nc(F)nn12)OCP(=O)(O)OP(=O)(O)OP(=O)(O)O` (stereo not shown) [Compound 27] is less than 50 nM; for `CC(Cc1ccc2c(N)nc(N)nn12)OCP(=O)(O)OP(=O)(O)OP(=O)(O)O` (stereo not shown) [Compound 28] it is no less than 250 nM; for `CC(Cc1ccc2c(=O)[nH]cnn12)OCP(=O)(O)OP(=O)(O)OP(=O)(O)O` (stereo not shown) [Compound 55] it is no less than 250 nM.
The same measure, in the same setting: under `CC(Cc1ccc2c(=O)[nH]c(N)nn12)OCP(=O)(O)OP(=O)(O)OP(=O)(O)O` (stereo not shown) [Compound 56] stands less than 50 nM; under `CC(Cc1cnc2c(=O)[nH]c(N)nn12)OCP(=O)(O)OP(=O)(O)OP(=O)(O)O` (stereo not shown) [Compound 57], 50 to 250 nM.
`Nc1ncnc2c(C[C@@H](CF)OCP(=O)(O)OP(=O)(O)OP(=O)(O)O)cnn12` [Compound 58]: the IC50 was less than 50 nM.
The same measure, in the same setting: under `Nc1ncnc2c(C[C@H](CF)OCP(=O)(O)OP(=O)(O)OP(=O)(O)O)cnn12` [Compound 59] stands less than 50 nM.
For `Nc1ncnc2c(CC3(OCP(=O)(O)OP(=O)(O)OP(=O)(O)O)CC3)cnn12` [Compound 60], the IC50 was 50 to 250 nM.
For the compound `Nc1ncnc2c(C[C@H](OCP(=O)(O)OP(=O)(O)OP(=O)(O)O)C(F)F)cnn12` [Compound 79], the IC50 is no less than 250 nM.
As to `Nc1ncnn2c(C[C@@H](CF)OCP(=O)(O)OP(=O)(O)OP(=O)(O)O)cnc12` [Compound 80], the IC50 is 50 to 250 nM.
The same measure, in the same setting: under `Nc1ncnc2c(C[C@@H](OCP(=O)(O)OP(=O)(O)OP(=O)(O)O)C(F)F)cnn12` [Compound 81] stands 50 to 250 nM; under `Nc1ncnn2c(C[C@H](CF)OCP(=O)(O)OP(=O)(O)OP(=O)(O)O)cnc12` [Compound 82], 50 to 250 nM; under `CC(C)(Cc1cnn2c(=O)[nH]c(N)nc12)OCP(=O)(O)OP(=O)(O)OP(=O)(O)O` [Compound 83], no less than 250 nM.

The next test concerns VSV-G pseudotyped HIV NL4-3. Briefly: microbe, parasite or virus in culture. The test is classed as cell-based. Conditions: Human immunodeficiency virus 1, NL43, 72 h.
Broadly, the EC50 is the concentration needed to bring the measured effect to its halfway point. On to `Nc1ncnn2c(COCCP(=O)(O)O)ccc12` [Compound 1, (2-((4-aminopyrrolo[2,1-f][1,2,4]triazin-7-yl)methoxy)ethyl)phosphonic Acid], for which the EC50 is greater than 100000 nM.
`C[C@H](Cc1ccc2c(N)ncnn12)OCP(=O)(O)O` [Compound 2, (R)-(((1-(4-aminopyrrolo[2,1-f][1,2,4]triazin-7-yl)propan-2-yl)oxy)methyl)phosphonic Acid] came in with an EC50 of 20000 to 100000 nM.
Turning to `Nc1ncnn2c(CCOCP(=O)(O)O)ccc12` [Compound 3, ((2-(4-aminopyrrolo[2,1-f][1,2,4]triazin-7-yl)ethoxy)methyl)phosphonic Acid], the EC50 is greater than 100000 nM.
`C[C@H](Cc1nnc2c(N)ncnn12)OCP(=O)(O)O` [Compound 4, (R)-(((1-(8-amino-[1,2,4]triazolo[3,4-f][1,2,4]triazin-3-yl)propan-2-yl)oxy)methyl)phosphonic Acid]: the EC50 was greater than 100000 nM.
Take `C[C@H](Cc1cnc2c(N)ncnn12)OCP(=O)(O)O` [Compound 5, (R)-(((1-(4-aminoimidazo[2,1-f][1,2,4]triazin-7-yl)propan-2-yl)oxy)methyl)phosphonic Acid]: the EC50 is less than 20000 nM.
The same measure, in the same setting: under `C[C@H](Cc1ncc2c(N)ncnn12)OCP(=O)(O)O` [Compound 6, (R)-(((1-(4-aminoimidazo[5,1-f][1,2,4]triazin-7-yl)propan-2-yl)oxy)methyl)phosphonic Acid] stands greater than 100000 nM; under `CC(Cc1cnn2c(N)ncnc12)OCP(=O)(O)O` (stereo not shown) [Compound 7, (1-(4-aminopyrazolo[1,5-a][1,3,5]triazin-8-yl)propan-2-yloxy)methylphosphonic Acid], less than 20000 nM; under `CC(Cc1ccc2c(N)nc(F)nn12)OCP(=O)(O)O` (stereo not shown) [Compound 8, (((1-(4-amino-2-fluoropyrrolo[2,1-f][1,2,4]triazin-7-yl)propan-2-yl)oxy)methyl)phosphonic Acid], 20000 to 100000 nM.
On the same count and under the same terms, under `C[C@H](Cc1cnn2c(N)ncnc12)OCP(=O)(O)O` [Compound 29] stands 20000 to 100000 nM; under `C[C@@H](Cc1cnn2c(N)ncnc12)OCP(=O)(O)O` [Compound 30], less than 20000 nM.

A further test has as its system HBV. Kind of test: microbe, parasite or virus in culture. The test is classed as cell-based. The following applies: HepG2.117 cells, 72 hours, HBV viral copy numbers in supernatant; read-out: EC50.
As for `Nc1ncnc2c(C[C@H](OCP(=O)(O)O)C(F)F)cnn12` [Compound 65, (S) (((3-(4-aminoprazolo[1,5-a][1,3,5]triazin-8-yl)-1,1-difluoropropan-2-yl)oxy)methyl)phosphonic Acid], the EC50 was in the range of 1000 to 10000 nM.

The test is the same for the next values; noted with them: Hepatitis B virus, HepG2.117, 72 h.
The compound `CC(C)OC(=O)[C@H](C)NP(=O)(CO[C@H](C)Cc1cnn2c(N)ncnc12)Oc1ccccc1` (stereo partly shown) [Compound 52] yielded an EC50 of less than 1000 nM.
Same read-out and setting: under `CC(C)OC(=O)[C@H](C)NP(=O)(CO[C@H](C)Cc1cnc2c(N)ncnn12)Oc1ccccc1` (stereo partly shown) [Compound 53] stands less than 1000 nM; under `CC(C)OC(=O)[C@H](C)NP(=O)(COC(C)Cc1cnc2c(=O)[nH]c(N)nn12)Oc1ccccc1` (stereo partly shown) [Compound 61], less than 1000 nM.
`CC(C)OC(=O)[C@H](C)NP(=O)(CO[C@@H](CF)Cc1cnn2c(N)ncnc12)Oc1ccccc1` (stereo partly shown) [Compound 62] registered an EC50 of less than 1000 nM.
On the same count and under the same terms, under `CC(C)OC(=O)[C@H](C)NP(=O)(CO[C@H](CF)Cc1cnn2c(N)ncnc12)Oc1ccccc1` (stereo partly shown) [Compound 63] stands less than 1000 nM.

Still in this test, the particulars now being: Hepatitis B virus; HepG2.117 cells, 72 hours, HBV viral copy numbers in supernatant; read-out: EC50.
As for `Nc1ncnn2c(COCCP(=O)(O)O)ccc12` [Compound 1, (2-((4-aminopyrrolo[2,1-f][1,2,4]triazin-7-yl)methoxy)ethyl)phosphonic Acid], the concentration giving a half-maximal response (EC50) was less than 1000 nM.
Consider `C[C@H](Cc1ccc2c(N)ncnn12)OCP(=O)(O)O` [Compound 2, (R)-(((1-(4-aminopyrrolo[2,1-f][1,2,4]triazin-7-yl)propan-2-yl)oxy)methyl)phosphonic Acid], for which the EC50 fell in the range of 10000 to 100000 nM.
On to `CC(Cc1ccc2c(N)nc(F)nn12)OCP(=O)(O)O` (stereo not shown) [Compound 8, (((1-(4-amino-2-fluoropyrrolo[2,1-f][1,2,4]triazin-7-yl)propan-2-yl)oxy)methyl)phosphonic Acid], for which the EC50 lay within 10000 to 100000 nM.
Still for that read-out and setting: under `CC(C)OC(=O)OCOP(=O)(COCCc1ccc2c(N)ncnn12)OCOC(=O)OC(C)C` [Compound 15] stands 1000 to 10000 nM; under `CC(C)OC(=O)OCOP(=O)(COC(CF)Cc1cnn2c(N)ncnc12)OCOC(=O)OC(C)C` (stereo not shown) [Compound 16], less than 1000 nM; under `CC(C)OC(=O)OCOP(=O)(COC(C)Cc1ccc2c(N)nc(N)nn12)OCOC(=O)OC(C)C` (stereo not shown) [Compound 18], 1000 to 10000 nM.
For the compound `CC(Cc1cnc2c(=O)[nH]c(N)nn12)OCP(=O)(O)O` (stereo not shown) [Compound 48, (((1-(2-amino-4-oxo-3,4-dihydroimidazo[2,1-f][1,2,4]triazin-7-yl)propan-2-yl)oxy)methyl)phosphonic Acid], the EC50 was less than 1000 nM.
For the compound `CC(C)OC(=O)OCOP(=O)(COC(C)Cc1ccc2c(=O)[nH]c(N)nn12)OCOC(=O)OC(C)C` (stereo not shown) [Compound 51], the half-maximal effective concentration (EC50) is less than 1000 nM.
As to `Nc1ncnc2c(CC3(OCP(=O)(O)O)CC3)cnn12` [Compound 64, ((1-((4-aminopyrazolo[1,5-a][1,3,5]triazin-8-yl)methyl)cyclopropoxy)methyl) phosphonic Acid], the EC50 lay within 10000 to 100000 nM.
Same read-out and setting: the figure for `Nc1ncnc2c(C[C@@H](OCP(=O)(O)O)C(F)F)cnn12` [Compound 66, (R)-(((3-(4-aminopyrazolo[1,5-a][1,3,5]triazin-8-yl)-1,1-difluoropropan-2-yl)oxy)methyl)phosphonic Acid] is 1000 to 10000 nM; for `Nc1ncnn2c(C[C@@H](CF)OCP(=O)(O)O)cnc12` [Compound 67, (S)-(((1-(4-aminoimidazo[2,1-f][1,2,4]triazin-7-yl)-3-fluoropropan-2-yl)oxy)methyl) phosphonic Acid] it is 10000 to 100000 nM; for `Nc1ncnn2c(C[C@H](CF)OCP(=O)(O)O)cnc12` [Compound 68, (R)-(((1-(4-aminoimidazo[2,1-f][1,2,4]triazin-7-yl)-3-fluoropropan-2-yl)oxy)methyl)phosphonic Acid] it is less than 1000 nM.
